The target in this experiment is T1, HCV1b NS5B polymerase delta 21 (Hepatitis C virus genotype 1b, UniProt P26663).
T1 construct: purified HCV1b NS5B polymerase delta 21
The experiment is described as follows: RNA-Dependent RNA HCV NS5B (Polymerase) Assay and IC50 Determination. It is filed as biochemical. Put shortly: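 Purified NS5B Δ21 (0.6 μg) with polyA:U16 template, 10 μM UTP plus α-32P UTP in Tris-HCl pH 7.5, 5 mM MgCl2, 0.5% Triton X-100, 60 min at 23°C with varied compound concentrations. Radiolabelled RNA captured on filters, quantified by phosphorimaging; IC50 from triplicate assays.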

Where a name gives a salt, the structure may show the parent alone.

T1 sequence (P26663 2420-2989): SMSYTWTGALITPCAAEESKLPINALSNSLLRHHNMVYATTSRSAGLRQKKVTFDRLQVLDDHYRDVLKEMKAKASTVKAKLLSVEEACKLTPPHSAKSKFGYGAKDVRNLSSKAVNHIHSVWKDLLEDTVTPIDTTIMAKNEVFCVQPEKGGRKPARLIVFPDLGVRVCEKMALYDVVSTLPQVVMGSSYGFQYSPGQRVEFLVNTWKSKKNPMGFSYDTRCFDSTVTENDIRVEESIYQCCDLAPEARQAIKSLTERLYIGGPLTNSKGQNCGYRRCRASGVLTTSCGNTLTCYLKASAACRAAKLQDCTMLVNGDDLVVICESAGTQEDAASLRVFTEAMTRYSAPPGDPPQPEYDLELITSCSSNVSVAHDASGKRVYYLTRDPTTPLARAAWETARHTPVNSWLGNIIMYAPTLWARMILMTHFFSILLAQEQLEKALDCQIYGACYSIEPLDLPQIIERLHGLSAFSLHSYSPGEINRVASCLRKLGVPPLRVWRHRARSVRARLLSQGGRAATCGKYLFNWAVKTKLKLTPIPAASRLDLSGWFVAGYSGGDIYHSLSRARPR

Molecule `CC1CCC(C2=C(c3cc(-c4ccccc4)sc3C(=O)O)CCN(C(=O)c3nn(C)c4ccccc34)C2)CC1` (centres unmarked) [Example 099, 3-[5-(4-Methyl-cyclohexyl)-1-(1-methyl-1H-indazole-3-carbonyl)-1,2,3,6-tetrahydro-pyridin-4-yl]-5-phenyl-thiophene-2-carboxylic acid] showed an IC50 of 3 to 10 µM.
With `CC1CCC(C2=C(c3cc(-c4ccccc4)sc3C(=O)O)CCN(C(C)C)C2)CC1` (centres unmarked) [Example 009, 3-[1-Isopropyl-5-(4-methyl-cyclohexyl)-1,2,3,6-tetrahydro-pyridin-4-yl]-5-phenyl-thiophene-2-carboxylic acid] the figure was 3 to 10 µM; with `CC1CCC(C2=C(c3cc(-c4ccccc4)sc3C(=O)O)CCN(Cc3ccc(Br)cn3)C2)CC1` (centres unmarked) [Example 149, 3-[1-(5-Bromo-pyridin-2-ylmethyl)-5-(4-methyl-cyclohexyl)-1,2,3,6-tetrahydro-pyridin-4-yl]-5-phenyl-thiophene-2-carboxylic acid], 3 to 10 µM.
As to `CC1CCC(C2=C(c3cc(C#CC(C)(C)C)sc3C(=O)O)CNCC2)CC1` (centres unmarked) [Example 111, 5-(3,3-Dimethyl-but-1-ynyl)-3-[4-(4-methyl-cyclohexyl)-1,2,5,6-tetrahydro-pyridin-3-yl]-thiophene-2-carboxylic acid], the half-maximal inhibitory concentration (IC50) was less than 3 µM.
For the molecule `CC1CCC(C2=C(c3cc(-c4cc(F)c(NC(=O)c5cscn5)c(F)c4)sc3C(=O)O)CCN(C)C2)CC1` (centres unmarked) [Example 166, 5-{3,5-Difluoro-4-[(thiazole-4-carbonyl)-amino]-phenyl}-3-[1-methyl-5-(4-methyl-cyclohexyl)-1,2,3,6-tetrahydro-pyridin-4-yl]-thiophene-2-carboxylic acid], the IC50 was less than 3 µM.
In the case of `CCCC#Cc1cc(C2=C(C3CCC(C)CC3)CN(CC)CC2)c(C(=O)O)s1` (centres unmarked) [Example 032, 3-[1-Ethyl-5-(4-methyl-cyclohexyl)-1,2,3,6-tetrahydro-pyridin-4-yl]-5-pent-1-ynyl-thiophene-2-carboxylic acid], the IC50 is less than 3 µM.
With `CC1CCC(C2=C(c3cc(-c4ccccc4)sc3C(=O)O)CCN(Cc3ccnc4ccccc34)C2)CC1` (centres unmarked) [Example 148, 3-[5-(4-Methyl-cyclohexyl)-1-quinolin-4-ylmethyl-1,2,3,6-tetrahydro-Pyridin-4-yl]-5-phenyl-thiophene-2-carboxylic acid], the IC50 was greater than 10 µM.
The result for `CCCC(C)C#Cc1cc(C2=C(C3CCC(C)CC3)CCN(C)C2)c(C(=O)O)s1` (centres unmarked) [Example 177, 5-(3-Methyl-hex-1-ynyl)-3-[1-methyl-4-(4-methyl-cyclohexyl)-1,2,5,6-tetrahydro-pyridin-3-yl]-thiophene-2-carboxylic acid] reads 3 to 10 µM; that for `CCN1CCC(c2cc(-c3ccc(NC(=O)c4ccco4)cc3)sc2C(=O)O)=C(C2CCC(C)CC2)C1` (centres unmarked) [Example 054, 3-[1-Ethyl-5-(4-methyl-cyclohexyl)-1,2,3,6-tetrahydro-pyridin-4-yl]-5-{4-[(furan-2-carbonyl)-amino]-phenyl}-thiophene-2-carboxylic acid], less than 3 µM; that for `CC1CCC(C2=C(c3cc(C#CC4(c5ccccc5)CC4)sc3C(=O)O)CCN(C)C2)CC1` (centres unmarked) [Example 173, 3-[1-Methyl-5-(4-methyl-cyclohexyl)-1,2,3,6-tetrahydro-pyridin-4-yl]-5-(1-phenyl-cyclopropylethynyl)-thiophene-2-carboxylic acid], greater than 10 µM.
With `CCN1CCC(c2cc(-c3ccc(NC(=O)c4cc(C)n(C)n4)cc3)sc2C(=O)O)=C(C2CCC(C)CC2)C1` (centres unmarked) [Example 051, 5-{4-[(1,5-Dimethyl-1H-pyrazole-3-carbonyl)-amino]-phenyl}-3-[1-ethyl-5-(4-methyl-cyclohexyl)-1,2,3,6-tetrahydro-pyridin-4-yl]-thiophene-2-carboxylic acid] the figure was less than 3 µM; with `CC1CCC(C2=C(c3cc(-c4ccccc4)sc3C(=O)O)CN(C)CC2)CC1` (centres unmarked) [Example 041, 3-[1-Methyl-4-(4-methyl-cyclohexyl)-1,2,5,6-tetrahydro-pyridin-3-yl]-5-phenyl-thiophene-2-carboxylic acid], less than 3 µM; with `CCCCN1CCC(c2cc(-c3ccccc3)sc2C(=O)O)=C(C2CCC(C)CC2)C1` (centres unmarked) [Example 007, 3-[1-Butyl-5-(4-methyl-cyclohexyl)-1,2,3,6-tetrahydro-pyridin-4-yl]-5-phenyl-thiophene-2-carboxylic acid], less than 3 µM.
With `CC1CCC(C2=C(c3cc(C#CC(C)(C)O)sc3C(=O)O)CCN(C)C2)CC1` (centres unmarked) [Example 011, 5-(3-Hydroxy-3-methyl-but-1-ynyl)-3-[1-methyl-5-(4-methyl-cyclohexyl)-1,2,3,6-tetrahydro-pyridin-4-yl]-thiophene-2-carboxylic acid] the figure was less than 3 µM; with `CC1CCC(C2=C(c3cc(-c4ccccc4)sc3C(=O)O)CCN(C(=O)Cc3ccncc3)C2)CC1` (centres unmarked) [Example 093, 3-[5-(4-Methyl-cyclohexyl)-1-(2-pyridin-4-yl-acetyl)-1,2,3,6-tetrahydro-pyridin-4-yl]-5-phenyl-thiophene-2-carboxylic acid], greater than 10 µM; with `CC1CC=C(C2=C(c3cc(-c4ccc(-c5cc6ncccn6n5)cc4)sc3C(=O)O)CCN(C)C2)CC1` (centres unmarked) [Example 070, 3-[1-Methyl-5-(4-methyl-cyclohex-1-enyl)-1,2,3,6-tetrahydro-pyridin-4-yl]-5-(4-pyrazolo[1,5-a]pyrimidin-2-yl-phenyl)-thiophene-2-carboxylic acid], less than 3 µM.
In turn, `CC1CCC(C2=C(c3cc(-c4cc(F)c(NC(=O)c5cscn5)cc4F)sc3C(=O)O)CCN(C)C2)CC1` (centres unmarked) [Example 160, 5-{2,5-Difluoro-4-[(thiazole-4-carbonyl)-amino]-phenyl}-3-[1-methyl-5-(4-methyl-cyclohexyl)-1,2,3,6-tetrahydro-pyridin-4-yl]-thiophene-2-carboxylic acid] registered an IC50 of less than 3 µM.
In the case of `CN1CCC(c2cc(C#CC(C)(C)C)sc2C(=O)O)=C([C@H]2CC[C@H](C)CC2)C1` [Example 046, 5-(3,3-Dimethyl-but-1-ynyl)-3-[1-methyl-5-(4-methyl-cyclohexyl)-1,2,3,6-tetrahydro-pyridin-4-yl]-thiophene-2-carboxylic acid], the 50% inhibitory concentration (IC50) is less than 3 µM.
The result for `CC1CCC(C2=C(c3cc(-c4ccc(-c5cn6ncccc6n5)cc4)sc3C(=O)O)CCN(C)C2)CC1` (centres unmarked) [Example 164, 5-(4-Imidazo[1,2-b]pyridazin-2-yl-phenyl)-3-[1-methyl-5-(4-methyl-cyclohexyl)-1,2,3,6-tetrahydro-pyridin-4-yl]-thiophene-2-carboxylic acid] reads 3 to 10 µM.
The result for `Cc1ccnc2cc(-c3ccc(-c4cc(C5=C(C6CCC(C)CC6)CN(C)CC5)c(C(=O)O)s4)cc3)nn12` (centres unmarked) [Example 162, 3-[1-Methyl-5-(4-methyl-cyclohexyl)-1,2,3,6-tetrahydro-pyridin-4-yl]-5-[4-(7-methyl-pyrazolo[1,5-a]pyrimidin-2-yl)-phenyl]-thiophene-2-carboxylic acid] reads less than 3 µM; that for `Cc1ccc(S(=O)(=O)N2CCC(c3cc(-c4ccccc4)sc3C(=O)O)=C(C3CCC(C)CC3)C2)cc1` (centres unmarked) [Example 036, 3-[5-(4-Methyl-cyclohexyl)-1-(toluene-4-sulfonyl)-1,2,3,6-tetrahydro-pyridin-4-yl]-5-phenyl-thiophene-2-carboxylic acid], greater than 10 µM.
In turn, `CC1CCC(C2=C(c3cc(-c4ccc(C#Cc5cscn5)cc4)sc3C(=O)O)CCN(C)C2)CC1` (centres unmarked) [Example 129, 3-[1-Methyl-5-(4-methyl-cyclohexyl)-1,2,3,6-tetrahydro-pyridin-4-yl]-5-(4-thiazol-4-ylethynyl-phenyl)-thiophene-2-carboxylic acid, hydrochloride salt] yielded an IC50 of less than 3 µM.
With `CC1CCC(C2=C(c3cc(-c4ccc(-c5cc6ncccn6n5)cc4)sc3C(=O)O)CN(C)CC2)CC1` (centres unmarked) [Example 169, 3-[1-Methyl-4-(4-methyl-cyclohexyl)-1,2,5,6-tetrahydro-pyridin-3-yl]-5-(4-pyrazolo[1,5-a]pyrimidin-2-yl-phenyl)-thiophene-2-carboxylic acid] the figure was less than 3 µM.
In turn, `CN1CCC(c2cc(-c3ccccc3)sc2C(=O)O)=C(C2CCC(C(F)(F)F)CC2)C1` (centres unmarked) [Example 064, 3-[1-Methyl-5-(4-trifluoromethyl-cyclohexyl)-1,2,3,6-tetrahydro-pyridin-4-yl]-5-phenyl-thiophene-2-carboxylic acid] returned a 50% inhibitory concentration (IC50) greater than 10 µM.
On to `CCCC(=O)N1CCC(c2cc(-c3ccccc3)sc2C(=O)O)=C(C2CCC(C)CC2)C1` (centres unmarked) [Example 077, 3-[1-Butyryl-5-(4-methyl-cyclohexyl)-1,2,3,6-tetrahydro-pyridin-4-yl]-5-phenyl-thiophene-2-carboxylic acid], for which the IC50 is 3 to 10 µM.
Molecule `CC1CCC(C2=C(c3cc(-c4ccc(-c5nc6cccnc6n5C)cc4)sc3C(=O)O)CCN(C)C2)CC1` (centres unmarked) [Example 139, 5-[4-(3-Methyl-3H-imidazo[4,5-b]pyridin-2-yl)-phenyl]-3-[1-methyl-5-(4-methyl-cyclohexyl)-1,2,3,6-tetrahydro-pyridin-4-yl]-thiophene-2-carboxylic acid] showed an IC50 greater than 10 µM.
`CCN1CCC(c2cc(-c3ccc(NC(=O)c4ccccc4)cc3)sc2C(=O)O)=C(C2CCC(C)CC2)C1` (centres unmarked) [Example 020, 5-(4-Benzoylamino-phenyl)-3-[1-ethyl-5-(4-methyl-cyclohexyl)-1,2,3,6-tetrahydro-pyridin-4-yl]-thiophene-2-carboxylic acid] registered an IC50 of 3 to 10 µM.
For `CC1CCC(C2=C(c3cc(-c4ccccc4)sc3C(=O)O)CCN(C(=O)Cc3cccc4ccccc34)C2)CC1` (centres unmarked) [Example 097, 3-[5-(4-Methyl-cyclohexyl)-1-(2-naphthalen-1-yl-acetyl)-1,2,3,6-tetrahydro-pyridin-4-yl]-5-phenyl-thiophene-2-carboxylic acid], the IC50 is greater than 10 µM.
For `CC1CCC(C2=C(c3cc(-c4ccccc4)sc3C(=O)O)CCN(CCc3ccccc3)C2)CC1` (centres unmarked) [Example 078, 3-[5-(4-Methyl-cyclohexyl)-1-phenethyl-1,2,3,6-tetrahydro-pyridin-4-yl]-5-phenyl-thiophene-2-carboxylic acid], the IC50 was greater than 10 µM.

Values taken from patent US8771665B2 (Cocrystal Discovery, Inc., priority 2010, dated 2014).
